# According to PubChem BioAssay (NCI):
#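 96-well plates; 48 h exposure; 5 concentrations. Endpoints by linear interpolation between flanking doses. Not reached: highest tested concentration assigned. The concentration for 50% growth inhibition is given as GI50. At the TGI there is no net growth.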
# Assays:
# Assay in all cases: NCI-60 cell line screen, 48 h
# 786-0 renal = tested on: 786-0 renal
# A549 NSCLC = tested on: A549 NSCLC
# ACHN renal = tested on: ACHN renal
# BT-549 breast = tested on: BT-549 breast
# CAKI-1 renal = tested on: CAKI-1 renal
# CCRF-CEM leukemia = tested on: CCRF-CEM leukemia
# COLO 205 colon = tested on: COLO 205 colon
# DU-145 prostate = tested on: DU-145 prostate
# EKVX NSCLC = tested on: EKVX NSCLC
# HCC-2998 colon = tested on: HCC-2998 colon
# HCT-116 colon = tested on: HCT-116 colon
# HCT-15 colon = tested on: HCT-15 colon
# HL-60(TB) leukemia = tested on: HL-60(TB) leukemia
# HOP-62 NSCLC = tested on: HOP-62 NSCLC
# HOP-92 NSCLC = tested on: HOP-92 NSCLC
# HS 578T breast = tested on: HS 578T breast
# HT29 colon = tested on: HT29 colon
# IGROV1 ovarian = tested on: IGROV1 ovarian
# K-562 leukemia = tested on: K-562 leukemia
# KM12 colon = tested on: KM12 colon
# LOX IMVI melanoma = tested on: LOX IMVI melanoma
# M14 melanoma = tested on: M14 melanoma
# MALME-3M melanoma = tested on: MALME-3M melanoma
# MCF7 breast = tested on: MCF7 breast
# MDA-MB-231 breast = tested on: MDA-MB-231 breast
# MDA-MB-435 = tested on: MDA-MB-435
# MOLT-4 leukemia = tested on: MOLT-4 leukemia
# NCI-H226 lung = tested on: NCI-H226 lung
# NCI-H23 lung = tested on: NCI-H23 lung
# NCI-H460 lung = tested on: NCI-H460 lung
# NCI-H522 lung = tested on: NCI-H522 lung
# NCI/ADR-RES ovarian = tested on: NCI/ADR-RES ovarian
# OVCAR-3 ovarian = tested on: OVCAR-3 ovarian
# OVCAR-4 ovarian = tested on: OVCAR-4 ovarian
# OVCAR-5 ovarian = tested on: OVCAR-5 ovarian
# OVCAR-8 ovarian = tested on: OVCAR-8 ovarian
# PC-3 prostate = tested on: PC-3 prostate
# RPMI-8226 leukemia = tested on: RPMI-8226 leukemia
# RXF 393 renal = tested on: RXF 393 renal
# SF-268 CNS = tested on: SF-268 CNS
# SF-295 CNS = tested on: SF-295 CNS
# SF-539 CNS = tested on: SF-539 CNS
# SK-MEL-2 melanoma = tested on: SK-MEL-2 melanoma
# SK-MEL-28 melanoma = tested on: SK-MEL-28 melanoma
# SK-MEL-5 melanoma = tested on: SK-MEL-5 melanoma
# SK-OV-3 ovarian = tested on: SK-OV-3 ovarian
# SN12C renal = tested on: SN12C renal
# SNB-19 CNS = tested on: SNB-19 CNS
# SNB-75 CNS = tested on: SNB-75 CNS
# SR leukemia = tested on: SR leukemia
# SW-620 colon = tested on: SW-620 colon
# T-47D breast = tested on: T-47D breast
# TK-10 renal = tested on: TK-10 renal
# U251 CNS = tested on: U251 CNS
# UACC-257 melanoma = tested on: UACC-257 melanoma
# UACC-62 melanoma = tested on: UACC-62 melanoma
# UO-31 renal = tested on: UO-31 renal
compound,measurement,setting,value
CCCCn1c(=O)c(/C=C/C(=O)/C=C/c2ccc(O)c(OC)c2)cc2ccc(Cl)cc21,GI50,786-0 renal,1770 nM
same,TGI,786-0 renal,3310 nM
same,GI50,A549 NSCLC,1720 nM
same,TGI,A549 NSCLC,4840 nM
same,GI50,ACHN renal,1600 nM
same,TGI,ACHN renal,2950 nM
same,GI50,BT-549 breast,1760 nM
same,TGI,BT-549 breast,4250 nM
same,GI50,CAKI-1 renal,2160 nM
same,TGI,CAKI-1 renal,3910 nM
same,GI50,CCRF-CEM leukemia,2790 nM
same,TGI,CCRF-CEM leukemia,22000 nM
same,GI50,COLO 205 colon,1720 nM
same,TGI,COLO 205 colon,4830 nM
same,GI50,DU-145 prostate,1790 nM
same,TGI,DU-145 prostate,3920 nM
same,GI50,EKVX NSCLC,2180 nM
same,TGI,EKVX NSCLC,4580 nM
same,GI50,HCC-2998 colon,2050 nM
same,TGI,HCC-2998 colon,3540 nM
same,GI50,HCT-116 colon,1520 nM
same,TGI,HCT-116 colon,3000 nM
same,GI50,HCT-15 colon,1900 nM
same,TGI,HCT-15 colon,5940 nM
same,GI50,HL-60(TB) leukemia,2340 nM
same,TGI,HL-60(TB) leukemia,13400 nM
same,GI50,HOP-62 NSCLC,1810 nM
same,TGI,HOP-62 NSCLC,4170 nM
same,GI50,HOP-92 NSCLC,1750 nM
same,TGI,HOP-92 NSCLC,4190 nM
same,GI50,HS 578T breast,3180 nM
same,TGI,HS 578T breast,14800 nM
same,GI50,HT29 colon,846 nM
same,TGI,HT29 colon,2570 nM
same,GI50,IGROV1 ovarian,1920 nM
same,TGI,IGROV1 ovarian,4100 nM
same,GI50,K-562 leukemia,2820 nM
same,TGI,K-562 leukemia,12800 nM
same,GI50,KM12 colon,1890 nM
same,TGI,KM12 colon,3660 nM
same,GI50,LOX IMVI melanoma,1510 nM
same,TGI,LOX IMVI melanoma,2840 nM
same,GI50,M14 melanoma,1860 nM
same,TGI,M14 melanoma,4170 nM
same,GI50,MALME-3M melanoma,2140 nM
same,TGI,MALME-3M melanoma,4920 nM
same,GI50,MCF7 breast,1880 nM
same,TGI,MCF7 breast,10800 nM
same,GI50,MDA-MB-231 breast,2510 nM
same,TGI,MDA-MB-231 breast,7730 nM
same,GI50,MDA-MB-435,1770 nM
same,TGI,MDA-MB-435,4170 nM
same,GI50,MOLT-4 leukemia,2170 nM
same,TGI,MOLT-4 leukemia,16300 nM
same,GI50,NCI-H226 lung,1770 nM
same,TGI,NCI-H226 lung,4230 nM
same,GI50,NCI-H23 lung,2060 nM
same,TGI,NCI-H23 lung,4980 nM
same,GI50,NCI-H460 lung,1960 nM
same,TGI,NCI-H460 lung,4170 nM
same,GI50,NCI-H522 lung,1780 nM
same,TGI,NCI-H522 lung,3860 nM
same,GI50,NCI/ADR-RES ovarian,2900 nM
same,TGI,NCI/ADR-RES ovarian,10700 nM
same,GI50,OVCAR-3 ovarian,1700 nM
same,TGI,OVCAR-3 ovarian,3240 nM
same,GI50,OVCAR-4 ovarian,2340 nM
same,TGI,OVCAR-4 ovarian,9810 nM
same,GI50,OVCAR-5 ovarian,2570 nM
same,TGI,OVCAR-5 ovarian,4890 nM
same,GI50,OVCAR-8 ovarian,2470 nM
same,TGI,OVCAR-8 ovarian,9490 nM
same,GI50,PC-3 prostate,1890 nM
same,TGI,PC-3 prostate,4710 nM
same,GI50,RPMI-8226 leukemia,2460 nM
same,TGI,RPMI-8226 leukemia,7620 nM
same,GI50,RXF 393 renal,1660 nM
same,TGI,RXF 393 renal,3250 nM
same,GI50,SF-268 CNS,1960 nM
same,TGI,SF-268 CNS,5430 nM
same,GI50,SF-295 CNS,2750 nM
same,TGI,SF-295 CNS,10300 nM
same,GI50,SF-539 CNS,1620 nM
same,TGI,SF-539 CNS,3180 nM
same,GI50,SK-MEL-2 melanoma,2670 nM
same,TGI,SK-MEL-2 melanoma,6320 nM
same,GI50,SK-MEL-28 melanoma,1930 nM
same,TGI,SK-MEL-28 melanoma,4120 nM
same,GI50,SK-MEL-5 melanoma,1690 nM
same,TGI,SK-MEL-5 melanoma,3090 nM
same,GI50,SK-OV-3 ovarian,3820 nM
same,TGI,SK-OV-3 ovarian,14200 nM
same,GI50,SN12C renal,1910 nM
same,TGI,SN12C renal,4170 nM
same,GI50,SNB-19 CNS,1620 nM
same,TGI,SNB-19 CNS,3300 nM
same,GI50,SNB-75 CNS,2260 nM
same,TGI,SNB-75 CNS,6220 nM
same,GI50,SR leukemia,2040 nM
same,TGI,SR leukemia,17600 nM
same,GI50,SW-620 colon,2050 nM
same,TGI,SW-620 colon,4370 nM
same,GI50,T-47D breast,1850 nM
same,TGI,T-47D breast,6280 nM
same,GI50,TK-10 renal,2510 nM
same,TGI,TK-10 renal,5470 nM
same,GI50,U251 CNS,1590 nM
same,TGI,U251 CNS,3080 nM
same,GI50,UACC-257 melanoma,1410 nM
same,TGI,UACC-257 melanoma,3310 nM
same,GI50,UACC-62 melanoma,1480 nM
same,TGI,UACC-62 melanoma,3240 nM
same,GI50,UO-31 renal,1590 nM
same,TGI,UO-31 renal,2930 nM
